Test results reported in patent US12421253B2 (Mirati Therapeutics, Inc., priority 2020, dated 2025).

How the values were obtained:
KRas^G12S = target: T1, KRas^G12S (Homo sapiens, UniProt P01116, G12S); test: KRas binding assay (TR-FRET displacement of Cy5 labelled tracer)
T1 construct: […]; biotin (biotinylated); purchased Accelegan Inc
Description: (§1) The ability of a compound to bind to KRas was measured using a TR-FRET displacement assay. […] After a 60-minute incubation at room temperature, the reaction was measured using a BMG LABTECH CLARIO star Plus via TR-FRET. […] The POC values were fit to a 4-parameter IC50 equation and the IC50 value reported.

KRas^G12R = target: T2, KRas^G12R (Homo sapiens, UniProt P01116, G12R); test: as above
T2 construct: […]; biotin (biotinylated); purchased Accelegan Inc
Description: as §1

KRas^G13D = KRas^G13D (Homo sapiens, UniProt P01116, G13D); test: biochemical
Description: as §1

KRas^G12V = target: T3, KRas^G12V (Homo sapiens, UniProt P01116, G12V); test: KRas binding assay (TR-FRET displacement of Cy5 labelled tracer)
T3 construct: […]; biotin (biotinylated); purchased Accelegan Inc
Description: as §1

KRas^G12D = target: T4, KRas^G12D (Homo sapiens, UniProt P01116, G12D); test: as above
T4 construct: […]; biotin (biotinylated); purchased Accelegan Inc
Description: as §1

KRas^G12C = KRas^G12C (Homo sapiens, UniProt P01116, G12C); test: biochemical
Description: as §1

KRas^WT = target: T5, KRas^WT (Homo sapiens, UniProt P01116); test: KRas binding assay (TR-FRET displacement of Cy5 labelled tracer)
T5 construct: […]; biotin (biotinylated); purchased Accelegan Inc
Description: as §1

KRas^Q61H = KRas^Q61H (Homo sapiens, UniProt P01116, Q61H); test: biochemical
Description: as §1

KRas^G12A = target: T6, KRas^G12A (Homo sapiens, UniProt P01116, G12A); test: KRas binding assay (TR-FRET displacement of Cy5 labelled tracer)
T6 construct: […]; biotin (biotinylated); purchased Accelegan Inc
T6 sequence (P01116 1-169 isoform P01116-2 G12A): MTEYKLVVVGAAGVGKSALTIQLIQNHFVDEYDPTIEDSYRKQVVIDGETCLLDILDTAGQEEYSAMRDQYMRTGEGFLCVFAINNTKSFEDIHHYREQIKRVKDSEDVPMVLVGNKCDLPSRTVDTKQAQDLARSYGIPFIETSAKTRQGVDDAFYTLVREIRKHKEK
Description: as §1

Chain of KRas^G12C (P01116 1-169 isoform P01116-2 G12C): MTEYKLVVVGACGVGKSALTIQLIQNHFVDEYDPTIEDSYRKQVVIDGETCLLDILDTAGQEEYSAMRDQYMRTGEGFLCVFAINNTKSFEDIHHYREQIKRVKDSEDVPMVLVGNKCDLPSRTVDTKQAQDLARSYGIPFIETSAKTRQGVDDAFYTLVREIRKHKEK
T1 sequence (P01116 1-169 isoform P01116-2 G12S): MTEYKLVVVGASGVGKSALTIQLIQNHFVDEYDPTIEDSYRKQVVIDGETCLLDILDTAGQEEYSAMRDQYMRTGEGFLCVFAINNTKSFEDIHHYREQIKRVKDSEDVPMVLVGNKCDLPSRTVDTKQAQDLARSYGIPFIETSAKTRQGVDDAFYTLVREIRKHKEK
T2 sequence (P01116 1-169 isoform P01116-2 G12R): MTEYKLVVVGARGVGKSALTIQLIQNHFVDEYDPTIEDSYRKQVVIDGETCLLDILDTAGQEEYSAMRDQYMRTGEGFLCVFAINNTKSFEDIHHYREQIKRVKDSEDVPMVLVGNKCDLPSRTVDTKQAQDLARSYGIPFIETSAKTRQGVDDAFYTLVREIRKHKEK
Chain of KRas^Q61H (P01116 1-169 isoform P01116-2 Q61H): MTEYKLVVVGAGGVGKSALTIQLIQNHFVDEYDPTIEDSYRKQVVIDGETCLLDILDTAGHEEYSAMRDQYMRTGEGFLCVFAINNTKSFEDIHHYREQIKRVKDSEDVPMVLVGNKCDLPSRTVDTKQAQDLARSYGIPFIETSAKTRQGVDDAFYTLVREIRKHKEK
T3 sequence (P01116 1-169 isoform P01116-2 G12V): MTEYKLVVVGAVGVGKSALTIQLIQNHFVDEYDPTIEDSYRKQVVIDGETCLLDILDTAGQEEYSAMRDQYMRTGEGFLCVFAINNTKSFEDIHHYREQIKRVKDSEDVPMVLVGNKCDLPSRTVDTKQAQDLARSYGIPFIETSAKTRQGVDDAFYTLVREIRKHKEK
T4 sequence (P01116 1-169 isoform P01116-2 G12D): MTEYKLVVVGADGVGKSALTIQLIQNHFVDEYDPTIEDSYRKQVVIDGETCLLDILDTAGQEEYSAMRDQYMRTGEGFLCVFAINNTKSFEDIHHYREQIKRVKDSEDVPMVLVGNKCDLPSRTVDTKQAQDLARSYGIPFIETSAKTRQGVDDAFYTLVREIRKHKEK
T5 sequence (P01116 1-169 isoform P01116-2): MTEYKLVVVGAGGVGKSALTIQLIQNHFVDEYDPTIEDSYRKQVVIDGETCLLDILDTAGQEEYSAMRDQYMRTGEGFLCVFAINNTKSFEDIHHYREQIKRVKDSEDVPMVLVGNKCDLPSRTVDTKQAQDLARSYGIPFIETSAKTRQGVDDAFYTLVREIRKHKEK
Chain of KRas^G13D (P01116 1-169 isoform P01116-2 G13D): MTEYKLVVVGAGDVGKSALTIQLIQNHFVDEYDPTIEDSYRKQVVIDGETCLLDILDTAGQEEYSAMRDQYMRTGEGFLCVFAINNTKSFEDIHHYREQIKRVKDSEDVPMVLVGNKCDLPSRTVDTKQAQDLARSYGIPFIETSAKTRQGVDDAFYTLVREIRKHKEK

Row | SMILES | IC50 (KRas^G12S) | IC50 (KRas^G12R) | IC50 (KRas^G13D) | IC50 (KRas^G12V) | IC50 (KRas^G12D) | IC50 (KRas^G12C) | IC50 (KRas^WT) | IC50 (KRas^Q61H) | IC50 (KRas^G12A)
1 | CCc1cccc2cccc(N3CCc4c(nc(OCC56CCCN5CCC6)nc4N4CCCc5ncccc5C4)C3)c12 [Example 55, 6-(7-(8-ethylnaphthalen-1-yl)-2-((hexahydro-1H-pyrrolizin-7a-yl)methoxy)-5,6,7,8-tetrahydropyrido[3,4-d]pyrimidin-4-yl)-6,7,8,9-tetrahydro-5H-pyrido[3,2-c]azepine] | 1160 nM | 744 nM | 3860 nM | 1100 nM | 1160 nM | 893 nM | 2900 nM | 4550 nM | 2080 nM
2 | CCc1cccc2cccc(N3CCc4c(nc(OCC56CCCN5CCC6)nc4NCCNc4ncccc4C#N)C3)c12 [Example 154, 2-((2-((7-(8-ethylnaphthalen-1-yl)-2-((tetrahydro-1H-pyrrolizin-7a(5H)-yl)methoxy)-5,6,7,8-tetrahydropyrido[3,4-d]pyrimidin-4-yl)amino)ethyl)amino)nicotinonitrile] | 7120 nM | 2370 nM | 8230 nM | 3070 nM | 35700 nM | 1790 nM | 6790 nM | 6910 nM | 4040 nM
3 | O=C1NC(=O)C2CN(c3nc(OCC45CCCN4CCC5)nc4c3CCN(c3cccc5cccc(Cl)c35)C4)CC12 (stereo not drawn) [Example 79, 5-(7-(8-chloronaphthalen-1-yl)-2-((hexahydro-1H-pyrrolizin-7a-yl)methoxy)-5,6,7,8-tetrahydropyrido[3,4-d]pyrimidin-4-yl)tetrahydropyrrolo[3,4-c]pyrrole-1,3(2H,3aH)-dione] | 35 nM | 135 nM | 111 nM | 67 nM | 53 nM | 116 nM | 109 nM | 151 nM | 128 nM
4 | CCc1cccc2cccc(N3CCc4c(nc(OCC56CCCN5CCC6)nc4N4CCCC(S(=O)(=O)NC)C4)C3)c12 (stereo not drawn) [Example 125, 1-(7-(8-ethylnaphthalen-1-yl)-2-((tetrahydro-1H-pyrrolizin-7a(5H)-yl)methoxy)-5,6,7,8-tetrahydropyrido[3,4-d]pyrimidin-4-yl)-N-methylpiperidine-3-sulfonamide] | 665 nM | 1490 nM | 720 nM | 1410 nM | 1030 nM | 1200 nM | 651 nM | 1050 nM | 1320 nM
5 | CCc1cccc2cccc(N3CCc4c(nc(OCC56CCCN5CCC6)nc4N4CC5(CNC(=O)N5)C4)C3)c12 [Example 149, 2-(7-(8-ethylnaphthalen-1-yl)-2-((tetrahydro-1H-pyrrolizin-7a(5H)-yl)methoxy)-5,6,7,8-tetrahydropyrido[3,4-d]pyrimidin-4-yl)-2,5,7-triazaspiro[3.4]octan-6-one] | 3350 nM | 1820 nM | 6890 nM | 1420 nM | 43000 nM | 1850 nM | 4750 nM | 6310 nM | 2540 nM
6 | CCc1cccc2cccc(N3CCc4c(nc(OCC56CCCN5CCC6)nc4NCc4nnc(N)o4)C3)c12 [Example 136, 5-(((7-(8-ethylnaphthalen-1-yl)-2-((tetrahydro-1H-pyrrolizin-7a(5H)-yl)methoxy)-5,6,7,8-tetrahydropyrido[3,4-d]pyrimidin-4-yl)amino)methyl)-1,3,4-oxadiazol-2-amine] | 1990 nM | 1630 nM | 3280 nM | 868 nM | 3390 nM | 969 nM | 1560 nM | 2300 nM | 1540 nM
7 | CCc1cccc2cccc(N3CCc4c(nc(OCC56CCCN5CCC6)nc4NCc4ccc5nncn5c4)C3)c12 [Example 39, N-([1,2,4]triazolo[4,3-a]pyridin-6-ylmethyl)-7-(8-ethylnaphthalen-1-yl)-2-((hexahydro-1H-pyrrolizin-7a-yl)methoxy)-5,6,7,8-tetrahydropyrido[3,4-d]pyrimidin-4-amine] | 592 nM | 239 nM | 1530 nM | 221 nM | 7110 nM | 317 nM | 1370 nM | 1640 nM | 425 nM
8 | CCc1cccc2cccc(N3CCc4c(nc(OCC56CCCN5CCC6)nc4N4CCCC(P(C)(C)=O)C4)C3)c12 (stereo not drawn) [Example 112, (1-(7-(8-ethylnaphthalen-1-yl)-2-((tetrahydro-1H-pyrrolizin-7a(5H)-yl)methoxy)-5,6,7,8-tetrahydropyrido[3,4-d]pyrimidin-4-yl)piperidin-3-yl)dimethylphosphine oxide] | 1330 nM | 2090 nM | 581 nM | 1580 nM | 7290 nM | 1570 nM | 412 nM | 64 nM | 1340 nM
9 | CCc1cccc2cccc(N3CCc4c(nc(OCC56CCCN5CCC6)nc4N4CCCn5nccc5C4)C3)c12 [Example 51, 4-(7,8-dihydro-4H-pyrazolo[1,5-a][1,4]diazepin-5(6H)-yl)-7-(8-ethylnaphthalen-1-yl)-2-((hexahydro-1H-pyrrolizin-7a-yl)methoxy)-5,6,7,8-tetrahydropyrido[3,4-d]pyrimidine] | 669 nM | 492 nM | 2030 nM | 652 nM | 309 nM | 564 nM | 1370 nM | 1930 nM | 1260 nM
10 | CCc1cccc2cccc(N3CCc4c(nc(OCC56CCCN5CCC6)nc4N4CCCC(c5n[nH]c(C6CC6)n5)C4)C3)c12 (stereo not drawn) [Example 108, 4-(3-(5-cyclopropyl-1H-1,2,4-triazol-3-yl)piperidin-1-yl)-7-(8-ethylnaphthalen-1-yl)-2-((tetrahydro-1H-pyrrolizin-7a(5H)-yl)methoxy)-5,6,7,8-tetrahydropyrido[3,4-d]pyrimidine] | 975 nM | 381 nM | 1290 nM | 948 nM | 4090 nM | 485 nM | 1550 nM | 1600 nM | 656 nM
11 | CCc1cccc2cccc(N3CCc4c(nc(OCC56CCCN5CCC6)nc4NC4CC5CC5C4)C3)c12 (stereo not drawn) [Example 170, N-(bicyclo[3.1.0]hexan-3-yl)-7-(8-ethylnaphthalen-1-yl)-2-((tetrahydro-1H-pyrrolizin-7a(5H)-yl)methoxy)-5,6,7,8-tetrahydropyrido[3,4-d]pyrimidin-4-amine] | 16400 nM | 11900 nM | 16400 nM | 5870 nM | 25000 nM | 15100 nM | 17000 nM | 17000 nM | 27900 nM
12 | CCc1cccc2cccc(N3CCc4c(nc(OCC56CCCN5CCC6)nc4N4CCOC(CC(N)=O)C4)C3)c12 (stereo not drawn) [Example 103, 2-(4-(7-(8-ethylnaphthalen-1-yl)-2-((tetrahydro-1H-pyrrolizin-7a(5H)-yl)methoxy)-5,6,7,8-tetrahydropyrido[3,4-d]pyrimidin-4-yl)morpholin-2-yl)acetamide] | 791 nM | 364 nM | 691 nM | 1390 nM | 2580 nM | 427 nM | 718 nM | 690 nM | 785 nM
13 | CCc1cccc2cccc(N3CCc4c(nc(OCC56CCCN5CCC6)nc4N4CCOCC(n5cccn5)C4)C3)c12 (stereo not drawn) [Example 9, 4-(7-(8-ethylnaphthalen-1-yl)-2-((tetrahydro-1H-pyrrolizin-7a(5H)-yl)methoxy)-5,6,7,8-tetrahydropyrido[3,4-d]pyrimidin-4-yl)-6-(1H-pyrazol-1-yl)-1,4-oxazepane] | 154 nM | 168 nM | 66 nM | 165 nM | 192 nM | 115 nM | 54 nM | 76 nM | 128 nM
14 | CCc1cccc2cccc(N3CCc4c(nc(OCC56CCCN5CCC6)nc4N4CCCC(C(C)O)C4)C3)c12 (stereo not drawn) [Example 131, 1-(1-(7-(8-ethylnaphthalen-1-yl)-2-((tetrahydro-1H-pyrrolizin-7a(5H)-yl)methoxy)-5,6,7,8-tetrahydropyrido[3,4-d]pyrimidin-4-yl)piperidin-3-yl)ethan-1-ol] | 1350 nM | 774 nM | 1360 nM | 1260 nM | 2120 nM | 1070 nM | 1410 nM | 1480 nM | 1200 nM
15 | CCc1cccc2cccc(N3CCc4c(nc(OCC56CCCN5CCC6)nc4N4CCCC(c5nc(=O)[nH][nH]5)C4)C3)c12 (stereo not drawn) [Example 104, 5-(1-(7-(8-ethylnaphthalen-1-yl)-2-((tetrahydro-1H-pyrrolizin-7a(5H)-yl)methoxy)-5,6,7,8-tetrahydropyrido[3,4-d]pyrimidin-4-yl)piperidin-3-yl)-1,2-dihydro-3H-1,2,4-triazol-3-one] | 1120 nM | 365 nM | 1800 nM | 852 nM | 4200 nM | 894 nM | 1590 nM | 1980 nM | 755 nM
